Assay results: US7495027B2, “3-aryl-4-hydroxyfuranone compounds and the human and animal health use thereof” (Wyeth, priority 2003, dated 2009)
Converted amounts (≈) assume the structure as drawn. Where two headings read alike, the source gives them in different places.

Key:
[1] = molecular target: T1, S. aureus Uridine-diphosphate-N-acetvimuramoyl: L-alanine lipase, MurC (Staphylococcus aureus, UniProt Q2FXJ0); test: biochemical; conditions: (S) S. aureus enzyme; for IC50: read-out: MurC IC50 (converted)
T1 sequence (Q2FXJ0 1-437): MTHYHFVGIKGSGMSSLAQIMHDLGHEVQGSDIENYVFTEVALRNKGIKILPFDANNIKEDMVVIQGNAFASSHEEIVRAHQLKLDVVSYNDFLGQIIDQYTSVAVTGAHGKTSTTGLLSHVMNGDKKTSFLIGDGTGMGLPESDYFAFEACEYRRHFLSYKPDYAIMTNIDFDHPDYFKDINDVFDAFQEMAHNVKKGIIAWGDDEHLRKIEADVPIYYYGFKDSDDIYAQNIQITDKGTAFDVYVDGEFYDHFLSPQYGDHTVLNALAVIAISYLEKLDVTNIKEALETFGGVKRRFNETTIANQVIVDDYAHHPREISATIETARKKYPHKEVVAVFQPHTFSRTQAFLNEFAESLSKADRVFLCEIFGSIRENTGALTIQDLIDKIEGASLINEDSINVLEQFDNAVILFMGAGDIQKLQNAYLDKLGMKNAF
Summary of the method: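 MurC assay: enzyme (E. coli 100 μg/mL, S. aureus 70 μg/mL stock) with L-Ala and test compound, pre-incubated 10 min at 23 °C, then UDP-MurNac added, 10 min at 37 °C. Phosphate released detected by malachite green–molybdate at 660 nm; IC50 by linear regression.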

[2] = molecular target: T2, S. aureus Uridine-diphosphate-N-acetylmuramoyl-L-alanine: D-glutamate liease, MurD (Staphylococcus aureus, UniProt Q2FZ92); test: biochemical; conditions: (S) S. aureus enzyme
T2 sequence (Q2FZ92 1-449): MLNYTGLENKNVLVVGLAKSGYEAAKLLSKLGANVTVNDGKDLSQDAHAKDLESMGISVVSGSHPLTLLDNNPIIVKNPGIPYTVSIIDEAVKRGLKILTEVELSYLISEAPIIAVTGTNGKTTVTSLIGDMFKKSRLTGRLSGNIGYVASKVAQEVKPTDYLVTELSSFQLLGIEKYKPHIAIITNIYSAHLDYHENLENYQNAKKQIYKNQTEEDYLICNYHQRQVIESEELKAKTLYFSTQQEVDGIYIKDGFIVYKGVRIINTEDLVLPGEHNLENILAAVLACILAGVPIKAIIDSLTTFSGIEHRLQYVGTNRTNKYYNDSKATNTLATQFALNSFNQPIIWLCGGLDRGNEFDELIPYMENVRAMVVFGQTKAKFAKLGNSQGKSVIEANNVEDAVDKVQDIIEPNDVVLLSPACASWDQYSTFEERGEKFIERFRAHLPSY
Summary of the method: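 MurD, which catalyses the fourth step of cell wall biosynthesis, was tested for inhibition by compounds. Compounds were made up as 10 mg/mL DMSO stocks and diluted to 100 μg/mL in 50 mM Tris/HCl, pH 8.5.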

staphylococci = test: Minimum inhibitory concentration, microdilution broth method, staphylococci; type: cell-based; conditions: Mueller-Hinton broth, 18-22 hours at 35° C.; for MIC: Staphylococcus aureus
Summary of the method: (§1)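 Recent clinical isolates, some resistant to methicillin, penicillin and/or vancomycin, were tested by the broth microdilution method of NCCLS Approved Standard M7-A5 2000. Mueller-Hinton broth served for staphylococci and enterococci, while streptococci received the same broth supplemented with 5% horse blood.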

enterococci = test: Minimum inhibitory concentration, microdilution broth method, enterococci; type: cell-based; conditions: Mueller-Hinton broth, 18-22 hours at 35° C.; for MIC: Enterococcus faecalis
Summary of the method: as §1

Streptococci = test: Minimum inhibitory concentration, microdilution broth method, streptococci; type: cell-based; conditions: Mueller-Hinton broth with 5% horse blood, 18-22 hours at 35° C.; for MIC: S. pneumo GC 1894
Summary of the method: as §1

[3] = S. aureus GC 1131, read-out: MIC S. aureus GC 1131
[4] = S. aureus GC 4543, read-out: MIC S. aureus GC 4543
[5] = E. faecalis GC 2242, read-out: MIC E. faecalis GC 2242
[6] = E. faecalis GC 4555, read-out: MIC E. faecalis GC 4555

Structure (SMILES) | MurC IC50 [1] | MurD IC50 [2] | MIC S. aureus GC 1131 (staphylococci; S. aureus GC 1131) | MIC S. aureus GC 4543 (staphylococci; S. aureus GC 4543) | MIC E. faecalis GC 2242 (enterococci; E. faecalis GC 2242) | MIC E. faecalis GC 4555 (enterococci; E. faecalis GC 4555) | MIC S. pneumo GC 1894 (Streptococci) | IC50 [1] | IC50 [2] | MIC (staphylococci; [3]) | MIC (staphylococci; [4]) | MIC (enterococci; [5]) | MIC (enterococci; [6]) | MIC (Streptococci)
Cc1cc(/C=C2\OC(=O)C(c3cc(Cl)cc(Cl)c3)=C2O)ccc1-c1ccccc1OS(C)(=O)=O [Example 39] | 8 (S) μg/mL | 15 (S) μg/mL | 2 µg/mL (≈ 3.87 µM) | 4 µg/mL (≈ 7.73 µM) | 4 µg/mL (≈ 7.73 µM) | 8 µg/mL (≈ 15.5 µM) | 1 µg/mL (≈ 1.93 µM) | – | – | – | – | – | – | –
CN(C)c1ccc(C=C2OC(=O)C(c3cc(Cl)cc(Cl)c3)=C2O)c2ccccc12 [Example 80] | 18 (S) μg/mL | 13 (S) μg/mL | 2 µg/mL (≈ 4.69 µM) | 1 µg/mL (≈ 2.35 µM) | 4 µg/mL (≈ 9.38 µM) | 8 µg/mL (≈ 18.8 µM) | 1 µg/mL (≈ 2.35 µM) | – | – | – | – | – | – | –
COc1ccccc1-c1ccc(/C=C2\OC(=O)C(c3ccc(Cl)c(Cl)c3)=C2O)cc1OC [Example 20] | – | – | – | – | – | – | – | 32 µM | 40.5 µM | 4 µg/mL (≈ 8.52 µM) | 4 µg/mL (≈ 8.52 µM) | 16 µg/mL (≈ 34.1 µM) | 16 µg/mL (≈ 34.1 µM) | 0.5 µg/mL (≈ 1.07 µM)
Cc1cc(/C=C2\OC(=O)C(c3cccc(Cl)c3)=C2O)ccc1-c1ccccc1Cl [Example 30] | – | – | – | – | – | – | – | > 59.1 µM | > 59.1 µM | 2 µg/mL (≈ 4.72 µM) | 1 µg/mL (≈ 2.36 µM) | 4 µg/mL (≈ 9.45 µM) | 4 µg/mL (≈ 9.45 µM) | 0.25 µg/mL (≈ 0.591 µM)
COc1ccc(C=C2OC(=O)C(c3cccc(Cl)c3)=C2O)c2ccccc12 [Example 35] | 8 (S) μg/mL | 17 (S) μg/mL | 8 µg/mL (≈ 21.1 µM) | 8 µg/mL (≈ 21.1 µM) | 8 µg/mL (≈ 21.1 µM) | 16 µg/mL (≈ 42.2 µM) | 2 µg/mL (≈ 5.28 µM) | – | – | – | – | – | – | –
Cc1ccccc1-c1ccc(/C=C2\OC(=O)C(c3cccc(Cl)c3)=C2O)cc1C [Example 28] | – | – | – | – | – | – | – | > 62.1 µM | > 62.1 µM | 1 µg/mL (≈ 2.48 µM) | 0.5 µg/mL (≈ 1.24 µM) | 2 µg/mL (≈ 4.96 µM) | 4 µg/mL (≈ 9.93 µM) | < 0.125 µg/mL
O=C1O/C(=C\c2cccc(-c3cc(Cl)cc(Cl)c3)c2)C(O)=C1c1cc(Cl)cc(Cl)c1 [Example 136] | – | – | – | – | – | – | – | > 52.3 µM | 20.9 µM | 0.25 µg/mL (≈ 0.523 µM) | 0.25 µg/mL (≈ 0.523 µM) | 0.5 µg/mL (≈ 1.05 µM) | 1 µg/mL (≈ 2.09 µM) | 0.25 µg/mL (≈ 0.523 µM)
O=C1O/C(=C\c2ccc(Cl)cc2)C(O)=C1c1ccc2ccccc2c1 [Example 43] | – | – | – | – | – | – | – | 60.2 µM | > 71.7 µM | 8 µg/mL (≈ 22.9 µM) | 8 µg/mL (≈ 22.9 µM) | 4 µg/mL (≈ 11.5 µM) | 16 µg/mL (≈ 45.9 µM) | 1 µg/mL (≈ 2.87 µM)
O=C1O/C(=C\c2ccc(-c3cc(Cl)cc(Cl)c3)cc2)C(O)=C1c1cc(Cl)cc(Cl)c1 | – | – | – | – | – | – | – | 48.1 µM | > 52.3 µM | 4 µg/mL (≈ 8.37 µM) | 0.5 µg/mL (≈ 1.05 µM) | 0.5 µg/mL (≈ 1.05 µM) | 1 µg/mL (≈ 2.09 µM) | < 0.125 µg/mL
O=C1O/C(=C\c2cccc(C(F)(F)F)c2)C(O)=C1c1ccc(-c2ccccc2)c(F)c1 [Example 106] | – | – | – | – | – | – | – | 28.1 µM | 37.5 µM | 2 µg/mL (≈ 4.69 µM) | 2 µg/mL (≈ 4.69 µM) | 0.25 µg/mL (≈ 0.586 µM) | 1 µg/mL (≈ 2.35 µM) | 0.25 µg/mL (≈ 0.586 µM)
O=C1O/C(=C\c2ccc(N3CCOCC3)c(F)c2)C(O)=C1c1cc(Cl)cc(Cl)c1 [Example 34] | 21 (S) μg/mL | >25 (S) μg/mL | 32 µg/mL (≈ 73.3 µM) | 32 µg/mL (≈ 73.3 µM) | 64 µg/mL (≈ 147 µM) | 64 µg/mL (≈ 147 µM) | 4 µg/mL (≈ 9.17 µM) | – | – | – | – | – | – | –
COc1ccccc1-c1ccc(/C=C2\OC(=O)C(c3cc(Cl)cc(Cl)c3)=C2O)cc1OC [Example 19] | – | – | – | – | – | – | – | 40.5 µM | 36.2 µM | 2 µg/mL (≈ 4.26 µM) | 2 µg/mL (≈ 4.26 µM) | 8 µg/mL (≈ 17 µM) | 8 µg/mL (≈ 17 µM) | 0.5 µg/mL (≈ 1.07 µM)
